Experimental data published in ChEMBL document CHEMBL1142015, “New derivatives of 1alpha,25-dihydroxy-19-norvitamin D3 with two substituents at C-2: synthesis and biological activity” (Bioorg Med Chem Lett, 2005).
Where “and” joins values, the source holds several entries; their conditions need not be identical. Equal values may be shown once.

Experiments:
[1] = target: T1, Vitamin D3 receptor (Homo sapiens) (UniProt P11473); experiment: Activation of vitamin D receptor in COS-7 cell transcription assay; assay type: functional, cell-based
T1 sequence (whole entry): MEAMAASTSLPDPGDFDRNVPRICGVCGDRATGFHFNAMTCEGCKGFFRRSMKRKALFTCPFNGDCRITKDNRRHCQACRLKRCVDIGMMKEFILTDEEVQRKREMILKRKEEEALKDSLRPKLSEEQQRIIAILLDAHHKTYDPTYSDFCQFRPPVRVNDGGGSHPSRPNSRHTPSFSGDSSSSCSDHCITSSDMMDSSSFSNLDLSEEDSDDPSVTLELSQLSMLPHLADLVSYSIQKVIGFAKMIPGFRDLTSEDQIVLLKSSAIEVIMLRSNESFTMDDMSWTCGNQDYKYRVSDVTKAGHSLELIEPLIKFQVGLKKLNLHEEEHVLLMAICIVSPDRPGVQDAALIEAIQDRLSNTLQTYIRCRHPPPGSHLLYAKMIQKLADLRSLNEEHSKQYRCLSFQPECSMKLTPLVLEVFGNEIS

[2] = target: T2, Vitamin D3 receptor (Bos taurus) (UniProt Q28037); experiment: Percent binding affinity for bovine vitamin D receptor compared to 1a
T2 sequence (whole entry): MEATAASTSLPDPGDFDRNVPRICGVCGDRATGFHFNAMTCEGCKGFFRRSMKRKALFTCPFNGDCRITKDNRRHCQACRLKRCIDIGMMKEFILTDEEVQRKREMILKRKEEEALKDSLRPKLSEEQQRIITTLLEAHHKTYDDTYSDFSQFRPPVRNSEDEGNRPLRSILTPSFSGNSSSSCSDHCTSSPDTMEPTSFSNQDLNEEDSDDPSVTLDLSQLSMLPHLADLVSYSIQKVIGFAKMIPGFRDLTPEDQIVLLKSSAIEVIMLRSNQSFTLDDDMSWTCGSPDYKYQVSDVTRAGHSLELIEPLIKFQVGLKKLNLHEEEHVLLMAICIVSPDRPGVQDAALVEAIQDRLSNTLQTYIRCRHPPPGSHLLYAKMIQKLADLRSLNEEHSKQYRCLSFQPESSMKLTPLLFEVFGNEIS

[3] = target: T2, Vitamin D3 receptor (Bos taurus); experiment: Percent binding affinity for bovine vitamin D receptor compared to 2-Me-1-alpha,2,5-dihydroxy-19-norvitamin D3
[4] = target: T2, Vitamin D3 receptor (Bos taurus); experiment: Percent binding affinity for bovine vitamin D receptor compared to 2-Et-1-alpha,2,5-dihydroxy-19-norvitamin D3
[5] = target: T1, Vitamin D3 receptor (Homo sapiens); experiment: Percent activation of vitamin D receptor in COS-7 cell transcription assay at 10e-8 or 10e-9 M; assay type: functional, cell-based

C[C@H](CCCC(C)(C)O)[C@H]1CC[C@H]2/C(=C\C=C3C[C@@H](O)C4(CO4)[C@H](O)C3)CCC[C@]12C (stereo partly specified)
ED50 [1]: 5 nM and 4 nM
VDR affinity [2]: 4% and 3%

CCC1(O)[C@H](O)CC(=C/C=C2/CCC[C@]3(C)[C@@H]([C@H](C)CCCC(C)(C)O)CC[C@@H]23)C[C@H]1O (stereo partly specified)
VDR affinity [2]: 2% and 0.05%

COCC1(O)[C@H](O)CC(=C/C=C2/CCC[C@]3(C)[C@@H]([C@H](C)CCCC(C)(C)O)CC[C@@H]23)C[C@H]1O (stereo partly specified)
VDR affinity [2]: 4% and 0.1%

C[C@@H](CCCC(C)(C)O)[C@H]1CC[C@H]2/C(=C\C=C3C[C@@H](O)C(C)(O)[C@H](O)C3)CCC[C@]12C (stereo partly specified)
ED50 [1]: 3200 nM
VDR affinity [2]: 100%
VDR affinity [3]: 23% and 18%

CCC1(O)[C@H](O)CC(=C/C=C2/CCC[C@]3(C)[C@@H]([C@@H](C)CCCC(C)(C)O)CC[C@@H]23)C[C@H]1O (stereo partly specified)
VDR affinity [4]: 200%
Transcriptional activity [5]: 92%
VDR affinity [2]: 5%

C=C1/C(=C\C=C2/CCC[C@]3(C)[C@@H]([C@H](C)CCCC(C)(C)O)CC[C@@H]23)C[C@@H](O)C[C@@H]1O
VDR affinity [2]: 100%

COCC1(O)[C@H](O)CC(=C/C=C2/CCC[C@]3(C)[C@@H]([C@@H](C)CCCC(C)(C)O)CC[C@@H]23)C[C@H]1O (stereo partly specified)
VDR affinity [2]: 20% and 10%

C[C@@H](CCCC(C)(C)O)[C@H]1CC[C@H]2/C(=C\C=C3C[C@@H](O)C4(CO4)[C@H](O)C3)CCC[C@]12C (stereo partly specified)
ED50 [1]: 89 nM and 18 nM

C[C@H](CCCC(C)(C)O)[C@H]1CC[C@H]2/C(=C\C=C3C[C@@H](O)C(O)(CF)[C@H](O)C3)CCC[C@]12C (stereo partly specified)
VDR affinity [2]: 2% and 0.02%

C[C@H](CCCC(C)(C)O)[C@H]1CC[C@H]2/C(=C\C=C3C[C@@H](O)C(C)(O)[C@H](O)C3)CCC[C@]12C (stereo partly specified)
VDR affinity [3]: 21% and 2.6%

C[C@@H](CCCC(C)(C)O)[C@H]1CC[C@H]2/C(=C\C=C3C[C@@H](O)C(O)(CF)[C@H](O)C3)CCC[C@]12C (stereo partly specified)
VDR affinity [2]: 60%
